What was measured:
Fuc-TVI = target: T1, Fuc-TVI (Homo sapiens, UniProt P51993); assay: Fucosyltransferase assay, extracts of COS-1 cells transfected with pCDNA1-Fuc-TVI; format: biochemical; conditions: for utilization as acceptor substrate by Fuc-TVI (in words): extracts of COS-1 cells transfected with pCDNA1-Fuc-TVI; for Relative Activity (%) with Fuc-TVI: relative product formation rate, N-acetyllactosamine = 100, acceptor 20 mM (2-fucosyllactose 5 mM), GDP-[14C]fucose 3 μM, transfected COS-1 cell extract
T1 construct: a 1.2 kb fragment containing the entire open reading frame was generated by the polymerase chain reaction; expressed in transfected cells; host or cells: COS-1 cells, transient transfection, 1% Triton X-100 extract
T1 sequence (P51993 1-359): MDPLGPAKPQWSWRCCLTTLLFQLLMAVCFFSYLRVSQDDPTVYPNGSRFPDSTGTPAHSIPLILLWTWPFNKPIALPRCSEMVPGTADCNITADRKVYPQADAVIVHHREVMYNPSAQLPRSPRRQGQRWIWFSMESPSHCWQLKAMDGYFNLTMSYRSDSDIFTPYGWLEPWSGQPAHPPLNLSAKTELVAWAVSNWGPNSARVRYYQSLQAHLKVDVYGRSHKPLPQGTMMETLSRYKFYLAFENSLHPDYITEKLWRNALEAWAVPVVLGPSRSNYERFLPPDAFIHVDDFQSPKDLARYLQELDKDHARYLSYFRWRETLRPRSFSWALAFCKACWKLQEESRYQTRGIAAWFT
Procedure: (§1) Cell extracts containing 1% Triton X-100 were prepared from transfected COS-1 cells, using procedures described previously (Kukowska-Latallo et al, Genes Devel., 4:1288-1303, 1990). Fucosyltransferase assays were performed in a total volume of 20 μl, and contained 50 mM sodium cacodylate, pH 6.2, 5 mM ATP, 10 mM fucose, 20 mM MnCl2, 3 μM GDP-^14C-fucose, and 5 μl (30 μg protein) of cell extract. Acceptor substrates were added to a final concentration of 20 mM. Reactions were incubated at 37° C. for 1 hour and terminated by addition of 20 μl ethanol, followed by addition of 600 μl of distilled water. An aliquot of each reaction (50 μl) was subjected to scintillation counting to determine total radioactivity in the reaction. Another aliquot (200 μl) was applied to a column containing 400 μl of Dowex 1X2-400, formate form (Rajan et al, J. Biol. Chem., 264:11158-11167, 1989). The flow through fraction, and […] of a subsequent water elution, were collected and pooled, and an aliquot was subjected to scintillation counting to quantitate incorporation of radioactive fucose into neutral product.
Table 2 presents the relative product formation rates obtained with low molecular weight acceptor substrates using cell extracts containing recombinant human α(1,3)fucosyltransferases expressed in transfected COS-1 cells, as described in the preceding sections. Fucosyltransferase assays were performed as described in detail in Lowe et al, J. Biol. Chem., (1991), 266:17467-17477; Weston et al, J. Biol. Chem. (1992), 267:4152-4160; and Kukowska-Latallo et al, Genes. Devel., (1990), 4:1288-1303. For each enzyme, the same extract was used, with saturating amounts of each acceptor oligosaccharide (20 mM, except for 2′-fucosylactose which was used at 5 mM), and GDP-^14C]fucose was present at 3 μM. Reaction times and enzyme amounts were adjusted to ensure a linear rate of product formation (less than 15% of the GDP-fucose substrate consumed). Products were separated by column chromatography and quantitated by liquid scintillation counting, and their structures were confirmed by high performance liquid chromatography, as described in Lowe et al, J. Biol. Chem., (1991), 266:17467-17477; Weston et al, J. Biol. Chem. (1992), 267:4152-4160; and Kukowska-Latallo et al, Genes. Devel., (1990), 4:1288-1303.

Fuc-TIV = target: T2, Fuc-TIV (Homo sapiens, UniProt P22083); assay: Fucosyltransferase assay, extracts of CHO-FT3 cells (CHO transfected with pCDNA1-Fuc-TIV); format: biochemical; parameters: expressed in transfected cells; conditions: standard assay, CHO-FT3 cell extracts
T2 sequence (P22083 1-405 isoform P22083-2): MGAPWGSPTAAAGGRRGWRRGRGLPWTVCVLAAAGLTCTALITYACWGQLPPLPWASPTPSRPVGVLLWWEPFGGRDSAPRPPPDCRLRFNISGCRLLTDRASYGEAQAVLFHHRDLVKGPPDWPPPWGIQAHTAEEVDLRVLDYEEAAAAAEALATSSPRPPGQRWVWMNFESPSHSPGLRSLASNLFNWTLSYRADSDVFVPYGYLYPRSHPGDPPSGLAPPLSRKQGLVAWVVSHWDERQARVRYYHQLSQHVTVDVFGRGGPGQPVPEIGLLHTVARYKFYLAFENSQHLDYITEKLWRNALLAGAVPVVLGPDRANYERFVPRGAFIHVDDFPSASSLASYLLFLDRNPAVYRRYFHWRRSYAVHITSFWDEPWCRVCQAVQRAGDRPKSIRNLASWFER
Procedure: CHO Ade-C cells were transfected with Scal-linearized pCDM7-Fuc-TIV, co-precipitated in a 10-fold molar excess over EcoRI-linearized pSV2-Neo. A single, clonal, SSEA-1-positive cell line (CHO-FT3) was derived from this population. Cell extracts prepared from CHO-FT3 contained substantial amounts of α(1,3)fucosyltransferase activity when assayed with the acceptor N-acetyllactosamine.
as §1, with “cells.” for “cells, using procedures described previously (Kukowska-Latallo et al, Genes Devel., 4:1288-1303, 1990).”, “IX2-400,” for “1X2-400,”, “form.” for “form (Rajan et al, J. Biol. Chem., 264:11158-11167, 1989).”, “product. Descending paper chromatography was used to confirm the structure of the product formed with the acceptor N-acetyllactosamine. The neutral product in the Dowex column eluate was concentrated by lyophilization, resuspended in a small volume of water, and fractionated through Whatman No. 40 in phenol/isopropanol/formic acid/water (85:5:10:100, lower layer). After chromatography (40 hours), the air-dried chromatogram was cut into 1 cm strips and the strips eluted into 2 ml of water. Radioactivity in each eluate was determined by scintillation counting after mixing with 10 ml of scintillation cocktail.” for “product.”

| Molecule | utilization as acceptor substrate by Fuc-TVI (in words) (Fuc-TVI) | Relative Activity (%) with Fuc-TVI (Fuc-TVI) [%] | α(1,3)fucosyltransferase activity with acceptor substrate (Fuc-TIV) [pmol/mg/h] |
| --- | --- | --- | --- |
| CC(=O)N[C@H]1C(O)O[C@H](CO)[C@@H](O[C@@H]2O[C@H](CO)[C@H](O)[C@H](O)[C@H]2O)[C@@H]1O (stereo partly shown) [N-acetyllactosamine] | utilized | 100 | 59.1 |
| CC(=O)N[C@@H]1[C@@H](O[C@@H]2O[C@H](CO)[C@H](O)[C@H](O)[C@H]2O)[C@H](O)[C@@H](CO)O[C@@H]1O [lacto-N-biose I] | not utilized | <1 | – |
| OC[C@H]1O[C@@H](O[C@H]2[C@H](O)[C@@H](O)C(O)O[C@@H]2CO)[C@H](O)[C@@H](O)[C@H]1O (stereo partly shown) [lactose] | did not function as acceptor substrates | <1 | 2.0 |
| CC(=O)NC1C(O)OC(CO)C(OC2OC(CO)C(O)C(OC3(C(=O)O)CC(O)C(NC(C)=O)C(C(O)C(O)CO)O3)C2O)C1O (stereo not drawn) [α(2,3)sialyllactosamine, NeuAcα(2→3)Galβ(1→4)GlcNAc] | efficiently utilized | 110 | – |
| Fucα(1,2)Galβ(1,4)Glc [2-fucosyllactose] | did not function as acceptor substrates | <1 | 5.8 |

Reference: US20020102688A1, “Methods and products for the synthesis of oligosaccharide structures on glycoproteins, glycolipids, or as free molecules, and for the isolation of cloned genetic sequences that determine these structures” (The Regents of the University of Michigan, priority 1990, published 2002)
